Tests used:
[1] = target: T1, FR-β positive rat peritoneal macrophages (Rattus norvegicus, UniProt D4A4S5); assay: Flow cytometry analysis of dye conjugate binding to rat peritoneal macrophages; type: cell-based; conditions: 100 nM, 1 h at 37° C
T1 construct: from tissue; host or cells: CD11b+ peritoneal macrophages from Lewis rats
Procedure: (§1) KB cells were allowed to form monolayers in a T75 falcon flask for 48 hours in folate-deficient RPMI 1640 culture medium (FDRPMI). The confluent cells were trypsinized and 1×10^6 cells were transferred into each Eppendorf tube and centrifuged. Spent medium was removed and the pelleted cells were resuspended in fresh medium containing either DMTHF-DyLight™ 680 conjugate (100 nM) or folate-DyLight™ 680 conjugate (100 nM), either in the presence or absence of 100-fold molar excess of free folic acid. After incubation for 1 h at 37° C., the cells were washed 3 times with PBS (0.5 ml) and re-suspended in fresh PBS (0.4 ml). Bound fluorescence was analyzed using a flow cytometer (Cytomics F500; Beckman Coulter).
For similar analysis of rat peritoneal macrophages, experimental adjuvant-induced arthritis was induced in Lewis rats according to a previously reported procedure. After 25 days of arthritis induction, the rats were sacrificed by CO2 asphyxiation and peritoneal macrophages were harvested by injecting 60 mL PBS into the peritoneal cavity, and after brief massage of the abdomen, removing the cells using the injection syringe. Peritoneal cells were transferred to Eppendorf tubes, washed and stained as described above, except CD11b+ macrophages that were identified by co-staining with anti-CD 11b-PE (phycoerythrin-labeled antibody to CD11b).

xenograft KB tumor = assay: Optical imaging of athymic nude mice bearing KB tumor; type: in vivo, mouse; conditions: athymic nude mice with KB tumor, 4 h after administration
Procedure: (§2) Radioimages of murine models of human diseases were acquired with a Kodak Imaging Station coupled to a CCD camera operated with Kodak Molecular Imaging Software v 4.0 (Carestream Molecular Imaging). Abdomens were generally shielded with a lead plate in order to mask radioactivity emitted from the kidneys and bladder. The parameters used for radioimaging were: acquisition time=2 min, f-stop=4, focal plane=7, FOV=200, binning=4. For white light imaging, the parameters were: acquisition time=0.05 s, f-stop=11, focal plane=7, FOV=200, with no binning. For fluorescent imaging, abdomens were shielded with black construction paper to block fluorescence emitted from the kidneys and bladder. The parameters used were: acquisition time=30 s, excitation filter of λ=625 nm, emission filter of λ=700 nm, f-stop=4, focal plane=7, FOV=200, and binning=4.
Animals bearing tumors and/or inflammatory diseases were prepared as described above and injected intraperitoneally with DMTHF-DyLight™ 680 or folate-DyLight™ 680 conjugate (4 nmol in 100 μl of PBS). […] To evaluate accumulation of test compounds in specific organs/tissues, animals were dissected and organs/tissues of interest were excised and selected regions of interest were analyzed in the Kodak Imaging Station.

FR-α positive KB cells [2] = target: T2, FR-α positive KB cells (Homo sapiens, UniProt P15328); assay: Flow cytometry analysis of dye conjugate binding to KB cells; type: cell-based; conditions: 100 nM, 1 h at 37° C
T2 construct: KB cells, a human nasopharyngeal cancer cell line known to over-express FR-α; host or cells: KB cells
T2 sequence (P15328 25-234): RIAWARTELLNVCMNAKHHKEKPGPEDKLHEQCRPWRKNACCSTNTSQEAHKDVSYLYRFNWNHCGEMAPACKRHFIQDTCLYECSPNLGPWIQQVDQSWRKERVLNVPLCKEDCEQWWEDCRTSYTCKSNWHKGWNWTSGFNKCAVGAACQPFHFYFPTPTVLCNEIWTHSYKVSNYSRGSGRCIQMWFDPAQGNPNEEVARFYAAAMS
Procedure: as §1

[3] = tested on: M109 tumor and DSS induced ulcerative colitis; assay: Optical imaging of Balb/C mice bearing M109 tumor with DSS induced ulcerative colitis; type: in vivo, mouse; conditions: 4 h after administration
Procedure: as §2
Six week old female Balb/c mice were purchased from Harlan laboratories and maintained on a folate deficient diet (Harlan-Teklad, Wis.). After one week of acclimation, the mice were inoculated subcutaneously on the shoulder with 0.1 mL of M109 tumor cell suspension (1×10^6 cells). Subcutaneous tumor growth was monitored daily and on day 10 post tumor inoculation, 4% dextran sulfate sodium was added to their drinking water for 6 days to induce experimental ulcerative colitis. […]

IGROV cells = assay: In vitro cytotoxicity assay ([^3H]-thymidine incorporation) in IGROV cells; type: cell-based, human
Procedure: (§3) KB, RAW or IGROV cells were seeded in 24-well (100,000 cells/well) Falcon plates and allowed to form monolayers overnight. Spent medium was then replaced with fresh medium (0.5 mL) containing increasing concentrations of drug conjugate in the presence or absence of excess folic acid, and cells were incubated for an additional 2 h at 37° C. Cells were washed 3× with fresh medium (0.5 mL) and incubated in fresh medium (0.5 mL) for another 66 h at 37° C. Spent medium in each well was replaced with fresh medium (0.5 mL) containing [^3H]-thymidine ([…]) and the cells were incubated for additional 4 h at 37° C. to allow [^3H]-thymidine incorporation. Cells were then rinsed with medium (3×0.5 mL) and treated with 5% trichloroacetic acid (0.5 mL) for 10 min at room temperature. After replacing trichloroacetic acid with 0.25 N NaOH (0.5 mL), cells were transferred to individual scintillation vials containing Ecolume scintillation cocktail (3.0 mL) and counted in a liquid scintillation counter. IC50 values were calculated by plotting %[^3H]-thymidine incorporation versus log concentration of DMTHF-EC-119-drug conjugate in GraphPad Prism 4.

KB cells = assay: In vitro cytotoxicity assay ([^3H]-thymidine incorporation) in KB cells; type: cell-based, human; conditions: for IC50: 2 h pulse, additional 66 h incubation
Procedure: The in vitro toxicity of DMTHF-EC-119-TubH, compound 6a, (See FIG. 15) was analyzed in KB cells which were pulsed for 2 h with increasing concentrations of DMTHF-EC-119-TubH in the presence or absence of 100 μM folic acid. After washing to remove unbound conjugate, cells were incubated for an additional 66 h in fresh medium before addition of tritiated thymidine.
as §3

[4] = target: T3, FR-β positive human peripheral blood monocytes (Homo sapiens, UniProt P14207); assay: Flow cytometry analysis of human peripheral blood monocytes; type: cell-based; conditions: 100 nM, 1 h at 37° C
T3 construct: Human peripheral blood monocytes were isolated from whole human blood by a known procedures; from tissue; host or cells: human peripheral blood mononuclear cells from healthy volunteers (CD11b+ monocytes)
T3 sequence (P14207 17-230): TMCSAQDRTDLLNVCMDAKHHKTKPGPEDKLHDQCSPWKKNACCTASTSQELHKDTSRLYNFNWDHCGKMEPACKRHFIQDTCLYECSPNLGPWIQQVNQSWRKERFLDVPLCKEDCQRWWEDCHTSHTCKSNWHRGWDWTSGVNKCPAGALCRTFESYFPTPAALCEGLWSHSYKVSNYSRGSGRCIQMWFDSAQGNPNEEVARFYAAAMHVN
Procedure: Human peripheral blood monocytes were isolated from whole human blood by a known procedures. Briefly, whole human blood in anticoagulant was collected from healthy volunteers following informed consent and the mononuclear cells were separated by Ficoll-Paque centrifugation. Cells were re-suspended in Eppendorf tubes in FDRPMI medium containing either DMTHF-Oregon Green™ 488 (100 nM) or folate-Oregon Green™ 488 (100 nM) plus CD 11b Tricolor to label human monocytes. For competition studies 100-fold molar excess of free folic acid was included in the suspension. After incubation for 1 h at 37° C., the cells were washed 3 times with PBS (0.5 ml) and re-suspended in fresh PBS (0.4 ml). Bound fluorescence was analyzed by flow cytometry as described above.

FR-α positive KB cells [5] = target: T2, FR-α positive KB cells; assay: Binding affinity of ^99mTc conjugates for KB cells (gamma counting)
Procedure: For evaluation of its affinity for FR-α, increasing concentrations of ^99mTc-DMTHF-chelate were incubated with KB cells, a human nasopharyngeal cancer cell line known to over-express FR-α. The level of bound radioactivity was analyzed using a gamma counter.
KB or CHO-β cells (100,000 cells/well in 500 μl) were plated into 24 well Falcon plates and allowed to form adherent monolayers (ca. 70% confluent) overnight. […] Cells were washed with PBS (3×1.0 mL), after which 0.25 M aqueous NaOH (0.5 ml) was added to dissolve the cells. After 10 minutes incubation, 450 μl from each well were transferred polypropylene tubes and counted for radioactivity in a γ counter (Packard Instrument Company). The binding affinity, Kd, was calculated using GraphPad Prism 4 by plotting cell bound radioactivity versus the concentration of radiotracer added.

RAW 264.7 cells = assay: In vitro cytotoxicity assay ([^3H]-thymidine incorporation) in RAW 264.7 cells; type: cell-based; conditions: murine macrophage cell line
Procedure: as §3

T1 sequence (D4A4S5 21-252): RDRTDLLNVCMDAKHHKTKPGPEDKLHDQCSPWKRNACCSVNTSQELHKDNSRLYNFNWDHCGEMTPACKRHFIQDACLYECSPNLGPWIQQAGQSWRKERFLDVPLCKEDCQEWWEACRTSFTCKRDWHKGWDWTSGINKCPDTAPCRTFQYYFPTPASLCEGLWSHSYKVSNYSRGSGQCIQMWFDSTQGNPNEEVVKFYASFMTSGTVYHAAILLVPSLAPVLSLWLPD

Row | Compound | binding to CD11b+ rat peritoneal macrophages (FR-β) [1] | binding to FR-α+ human KB cells (FR-α positive KB cells [2]) | IC50 (IGROV cells) [µM] | IC50 (KB cells) [µM] | shift in the CD11b+ subpopulation of human peripheral blood leucocytes (FR-β) [4] | other results
1 | N^5,N^10-Dimethyl Tetrahydrofolate-DyLight™ 680 [DMTHF-DyLight™ 680] | no measurable affinity | binds avidly |  |  |  | fluorescent uptake, optical imaging (xenograft KB tumor): tumor selective uptake; fluorescent uptake, ROI analysis of organs/tissues [3]: accumulated mainly in tumors
2 | CCCC(=O)OCN(C(=O)[C@@H](NC(=O)[C@H]1CCCCN1C)C(C)CC)[C@H](C[C@@H](OC(C)=O)c1nc(C(=O)N[C@@H](Cc2ccc(O)cc2)C[C@H](C)C(=O)NNC(=O)OCCSSC[C@H](NC(=O)[C@H](CC(=O)O)NC(=O)[C@H](CC(=O)O)NC(=O)[C@H](CCCNC(=N)N)NC(=O)[C@H](CC(=O)O)NC(=O)CC[C@H](NC(=O)c2ccc(N(C)CC3CNc4nc(N)[nH]c(=O)c4N3C)cc2)C(=O)O)C(=O)O)cs1)C(C)C (stereo partly shown) [DMTHF-EC-119-TubH, DMTHF-EC-119-tubulysin B hydrazide] |  |  | ~120 | 0.041 |  | effect of excess folic acid on cytotoxicity (KB cells; 100 μM folic acid): inhibited by excess folic acid
3 | N^5,N^10-Dimethyl tetrahydrofolate-Oregon Green™ 488 [DMTHF-Oregon Green] |  |  |  |  | did not | 
4 | Nc1nc2ncc(CNc3ccc(C(=O)N[C@H](CCC(=O)NC[C@H](N)C(=O)N[C@@H](CC(=O)O)C(=O)N[C@@H](CS)C(=O)O)C(=O)O)cc3)nc2c(=O)[nH]1 [EC20, pteroic acid-Glu-DAP-Asp-Cys] |  |  |  |  |  | competition of KB cell binding by free folic acid (FR-α positive KB cells [5]; 100-fold molar excess of free folic acid): competed by excess free folic acid; Kd (FR-α positive KB cells [5]; KB cells, 1 hour at 37° C, cell bound radioactivity, read-out: apparent Kd): 0.023 µM
5 | CN(CC1CNc2nc(N)[nH]c(=O)c2N1C)c1ccc(C(=O)N[C@@H](CCC(=O)O)C(=O)O)cc1 (stereo partly shown) [DMTHF, N^5,N^10-dimethyl-tetrahydrofolic acid] | little affinity for FR-β | binds FR-α |  |  | lack of affinity | 
6 | CCC1(O)CC2CN(CCc3c([nH]c4ccccc34)[C@](C(=O)OC)(c3cc4c(cc3OC)N(C)[C@@H]3[C@](O)(C(=O)NNC(=O)OCCSSC[C@H](NC(=O)[C@H](CC(=O)O)NC(=O)[C@H](CC(=O)O)NC(=O)[C@H](CCCNC(=N)N)NC(=O)[C@H](CC(=O)O)NC(=O)CC[C@H](NC(=O)c5ccc(N(C)CC6CNc7nc(N)[nH]c(=O)c7N6C)cc5)C(=O)O)C(=O)O)[C@@H](O)[C@@]5(CC)C=CCN6CC[C@@]43[C@H]65)C2)C1 (stereo partly shown) [DMTHF-EC-119-DAVBH, DMTHF-EC-119-desacetylvinblastine hydrazide] |  |  | ~1 | 0.042 |  | cytotoxicity in RAW 264.7 cells (RAW 264.7 cells): did not show any cytotoxicity

— patent US9629918B2, “Folate receptor alpha binding ligands” (PURDUE RESEARCH FOUNDATION, priority 2012, dated 2017)
